As a reminder, the IC50 is the midpoint of a concentration-inhibition curve.

Activity calls are given as the source filed them. The rule behind the calls is not given here.

This experiment deals with Microphthalmia-associated transcription factor (Homo sapiens) (UniProt O75030). As to the kind of experiment: MITF inhibitors, potency by titration, dose response, biochemical, AlphaScreen, human (AID 1259371). The settings on record: AlphaScreen biochemical MITF assay, signal inhibition. In general terms: In Alpha technology, singlet oxygen from a donor bead excites a nearby acceptor bead.
Sequence of Microphthalmia-associated transcription factor (Homo sapiens) (O75030 whole entry, looked up): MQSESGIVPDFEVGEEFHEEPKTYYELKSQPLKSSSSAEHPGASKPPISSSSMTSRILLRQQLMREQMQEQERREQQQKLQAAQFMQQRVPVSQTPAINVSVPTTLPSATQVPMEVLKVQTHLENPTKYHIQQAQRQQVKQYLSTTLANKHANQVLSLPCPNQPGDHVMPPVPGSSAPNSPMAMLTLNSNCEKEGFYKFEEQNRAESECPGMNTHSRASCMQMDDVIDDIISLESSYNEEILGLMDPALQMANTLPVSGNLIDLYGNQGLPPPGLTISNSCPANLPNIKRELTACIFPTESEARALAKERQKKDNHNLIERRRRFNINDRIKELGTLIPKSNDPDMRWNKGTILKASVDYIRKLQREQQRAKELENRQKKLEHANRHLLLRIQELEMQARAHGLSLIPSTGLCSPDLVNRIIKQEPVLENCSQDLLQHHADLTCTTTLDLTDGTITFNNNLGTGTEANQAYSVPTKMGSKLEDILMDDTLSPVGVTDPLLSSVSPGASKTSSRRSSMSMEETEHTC
`CCC[C@@H]1NC(=O)[C@H]2CN(C(=O)NC3CCCCC3)CCN2C1=O`: the IC50 was 757 nM.
Regarding `O=C(Cc1cccs1)N/N=C\C=C\c1ccco1`, the IC50 was 85.5 nM.
Then `Cc1ccc(NC(=O)COC(=O)CCC(=O)Nc2sc3c(c2C(N)=O)CCC3)cc1F`, with “inactive”; and `O=S(=O)(O)c1ccc(N/N=C2\CCc3ccccc32)cc1`, with > 2160 nM (inactive); and `O=C(OC1CCOC1=O)c1cc(-c2ccco2)nc2ccccc12` (stereo unspecified), with 338 nM.
`C=C1c2cccc(O)c2C(O)=C2C(=O)[C@]3(O)C(O)=C(C(N)=O)C(=O)[C@@H](N(C)C)[C@@H]3[C@@H](O)[C@H]12`: the IC50 was 39.9 nM.
For `COc1ccc2c(c1)CC(C(=O)Nc1ccc(-c3cn[nH]c3)cc1OCC(N)=O)CO2` (stereo unspecified), the IC50 entry was “inactive”.
With `CCc1ccc(CN2CCN(C(C)C)CC2)cc1` the figure was > 6890 nM (inactive).
With `O=C(/C=C/c1ccco1)ON1C(=O)c2ccccc2C1=O` the figure was > 6480 nM (inactive); with `Cc1ccc(-c2nnc3s/c(=C\c4ccco4)c(=O)n23)cc1`, “inactive”.
For the compound `N#Cc1c(-c2ccco2)cc(-c2ccco2)nc1N`, the IC50 is 20 nM.
Turning to `COc1ccc(OC)c(NC(=O)c2cc3ccc(O)cc3oc2=Nc2ccc(C(=O)O)cc2)c1`, the IC50 was 981 nM.
In the case of `O=C(/C=C/c1ccco1)NCCCCCCNC(=O)/C=C/c1ccco1`, the IC50 result is “inactive”.
`O=C(O)CCC(NCc1ccco1)C(=O)O` (stereo unspecified): the IC50 was 806 nM.
Then `O=C1c2ccc([N+](=O)[O-])cc2C(=O)N1c1cc(Br)c(O)c(Br)c1`, with 162 nM.
With `O=C(NCCc1ccc(O)cc1)c1ccnc(-c2cccs2)c1` the entry was “inactive”; with `CN(CCC#N)C(=O)COC(=O)c1c2c(nc3ccccc13)/C(=C/c1ccco1)CC2`, “inactive”.
Then `O=C(/C=C/c1ccco1)NC(=S)Nc1cc(C(=O)O)ccc1Cl`, with 146 nM; and `O=C1N[C@@H](CC2CCCCC2)C(=O)N2CCN(C(=O)NCc3ccccc3)C[C@H]12`, with > 2160 nM (inactive); and `O=c1[nH]c(/C=C/c2ccco2)nc(O)c1[N+](=O)[O-]`, with 284 nM.
Take `S=c1[nH]nc(-c2ccncc2)n1/N=C/C=C/c1ccco1`: the IC50 is 207 nM.
For the compound `O=C1NC(=O)/C(=C\c2ccc(O)cc2O)S1`, the IC50 entry is “inactive”.
Then `O=C(COC(=O)c1cc(-c2ccco2)nc2ccccc12)NC1CC1`, with “inactive”; and `CCOC(=O)C1C2NC(=S)N(c3ccc(C)cc3)C1(C)Oc1c(OCC)cccc12` (stereo unspecified), with > 4890 nM (inactive).
Then `COc1ccc(OC)c(CN2CCN(Cc3ccc(F)cc3)CC2)c1`, with > 6110 nM (inactive).
With `O=C(OC1(C(F)(F)F)C(=O)Nc2cc3c(cc21)OCO3)c1ccc(Cl)nc1` (stereo unspecified), the IC50 is 179 nM.
Then `CC(=O)NC1=NC(=O)/C(=C\c2ccc(Br)o2)S1`, with 153 nM; and `Cc1ccc(N2C(=O)c3ccccc3NC2c2cccc([N+](=O)[O-])c2)cc1` (stereo unspecified), with > 5150 nM (inactive); and `O=C(NCc1ccccc1)N1CCN2C(=O)[C@H]3CCCN3C(=O)[C@H]2C1`, with “inactive”.
On to `COCCNC(=O)COC(=O)c1cc(-c2ccco2)nc2ccccc12`, for which the IC50 entry is “inactive”.
Then `c1ccc2c(c1)ncn2CC1CCN(Cc2cn3ccccc3n2)CC1`, with “inactive”.

These data come from PubChem BioAssay AID1259371 (The Scripps Research Institute Molecular Screening Center, 2018).
